Blank lines part the entries; values can stand above or below the molecule they belong to.
Key:
dopamine transporter (h) = dopamine transporter (h) (Homo sapiens (Human), UniProt Q01959); assay: ExpresSProfile: dopamine transporter, antagonist radioligand; assay type: binding; conditions: Reference Compound
sst (non-selective) = assay: ExpresSProfile: somatostatin receptor, agonist radioligand; assay type: binding; conditions: Reference Compound
M3 (h) = M3 (h) (Homo sapiens (Human), UniProt P20309); assay: ExpresSProfile: muscarinic receptor 3, antagonist radioligand; assay type: binding; conditions: Reference Compound
5-HT1B = 5-HT1B (Rattus norvegicus, UniProt P28564); assay: ExpresSProfile: 5-hydroxytryptamine receptor 1B, antagonist radioligand; assay type: binding; conditions: Reference Compound
5-HT6 (h) = 5-HT6 (h) (Homo sapiens (Human), UniProt P50406); assay: ExpresSProfile: 5-hydroxytryptamine receptor 6, agonist radioligand; assay type: binding; conditions: Reference Compound
NTR1 [1] = target: T1, NTR1 (Homo sapiens (Human), UniProt P30989); assay: Radioligand binding assay NTR1 (example part II); conditions: 0.05 nM 125I-(Tyr3-neurotensin), 60 min at 4° C.; read-out: IC50 [nM] RLB
Description: In order to determine the binding affinity of compounds comprising a radiolabel for NTR1, a radioligand binding assay was carried out. A radioligand is a radioactive biochemical substance that is used for diagnosis or for research-oriented study of cellular receptor systems of the body. In […] systems it is often used to quantify the binding of a test molecule to the binding site of radioligand. The higher the affinity of the molecule, the more radioligand is displaced from the binding site. The amount of bound radioligand can be measured by scintillation counting and thereby quantified. This assay is commonly used to calculate binding constants of molecules to receptors.
The NTR1 radioligand binding assay was performed by Cerep (Celle l'Evescault, France; Catalog reference 0109) according to Vita et al., FEBS Lett., 1993, 317, 139-142. NTR1 was prepared from CHO cells recombinantly expressing the human receptor and incubated with 0.05 nM ^125I-(Tyr^3-neurotensin) and serial dilutions of the test compounds. […] The result for each test compound is expressed as IC50 concentration and provides a measure for the affinity of the test compound for NTR1.

NTR1 [2] = target: T1, NTR1; assay: Functional Ca2+ mobilisation assay (example part II); assay type: cell-based; conditions: antagonist assay
Text: Ca^2+ ions are usually kept at nanomolar levels in the cytosol of cells, and act in a number of signal transduction pathways as second messengers. […] Changes in calcium ion concentration in standard assay protocols can be readily detected with fluorescent dyes that emit light when changes in intracellular Ca2^+ ion concentration occur. Given the transient nature of these responses, they are often read with instrumentation that has ‘inject and read’ capability.
HT29 or NTR1-expressing HEK293 cells were trypsinized and seeded into black flat clear-bottom 96-well plates (Corning, Amsterdam, The Netherlands) at 6×10^5 cells per well. After 24 h incubation at 37° C. and 5% CO2, cells were washed twice with wash buffer (130 mM NaCl, 5 mM KCl, 10 mM Hepes, 2 mM CaCl2, 10 mM Glucose, pH 7.4) and loaded with 100 μl of Ca5 dye (Molecular Devices, Biberach, Germany) for 1 h at 37° C. and 5% CO2. For agonist assays, serial dilutions of agonistic substances were added to the cells loaded with dye and the change of the fluorescent signal was recorded continually for approx. 90 s using a FlexStation II (Molecular Devices, Biberach, Germany). Addition of wash buffer served as a control. Thus, EC50 concentrations for each compound were computed and provided a measure for the potency of the substance. For antagonist assays, cells loaded with 100 μl of Ca5-dye were pre-incubated with serial dilutions of antagonistic substances for 30 min, before the EC80-concentration of agonist was added to the cells and the change of the fluorescent signal was recorded continually for approx. 90 s. Thus, IC50 concentrations were computed for each compound and provided a measure for the inhibitory activity of the compounds at the NTR1.

Cl-channel (GABA-gated) = assay: ExpresSProfile: Cl-channel, antagonist radioligand; assay type: binding; conditions: Reference Compound
mu (MOP) (h) = mu (MOP) (h) (Homo sapiens (Human), UniProt P35372); assay: ExpresSProfile: mu opioid receptor, agonist radioligand; assay type: binding; conditions: Reference Compound
5-HT2B (h) = 5-HT2B (h) (Homo sapiens (Human), UniProt P41595); assay: ExpresSProfile: 5-hydroxytryptamine receptor 2B, agonist radioligand; assay type: binding; conditions: Reference Compound
M2 (h) = M2 (h) (Homo sapiens (Human), UniProt P08172); assay: ExpresSProfile: muscarinic receptor 2, antagonist radioligand; assay type: binding; conditions: Reference Compound
NK2 (h) = NK2 (h) (Homo sapiens (Human), UniProt P21452); assay: ExpresSProfile: neurokinin receptor 2, agonist radioligand; assay type: binding; conditions: Reference Compound
5-HT3 (h) = 5-HT3 (h) (Homo sapiens (Human), UniProt P46098); assay: ExpresSProfile: 5-hydroxytryptamine channel 3, antagonist radioligand; assay type: binding; conditions: Reference Compound
alpha 1 (non-selective) = assay: ExpresSProfile: alpha1 adrenergic receptor, antagonist radioligand; assay type: binding; conditions: Reference Compound
SKCa channel = assay: ExpresSProfile: SKCa channel, antagonist radioligand; assay type: binding; conditions: Reference Compound
MT1 (ML1A) (h) = MT1 (ML1A) (h) (Homo sapiens (Human), UniProt P48039); assay: ExpresSProfile: melatonin receptor 1, agonist radioligand; assay type: binding; conditions: Reference Compound
KV channel = assay: ExpresSProfile: KV channel, antagonist radioligand; assay type: binding; conditions: Reference Compound
NK3 (h) = NK3 (h) (Homo sapiens (Human), UniProt P29371); assay: ExpresSProfile: neurokinin receptor 3, antagonist radioligand; assay type: binding; conditions: Reference Compound
5-HT2A (h) = 5-HT2A (h) (Homo sapiens (Human), UniProt P28223); assay: ExpresSProfile: 5-hydroxytryptamine receptor 2A, antagonist radioligand; assay type: binding; conditions: Reference Compound
EP4 (h) = EP4 (h) (Homo sapiens (Human), UniProt P35408); assay: ExpresSProfile: prostaglandin e receptor type 4, agonist radioligand; assay type: binding; conditions: Reference Compound
Chain of EP4 (h) (P35408 whole entry): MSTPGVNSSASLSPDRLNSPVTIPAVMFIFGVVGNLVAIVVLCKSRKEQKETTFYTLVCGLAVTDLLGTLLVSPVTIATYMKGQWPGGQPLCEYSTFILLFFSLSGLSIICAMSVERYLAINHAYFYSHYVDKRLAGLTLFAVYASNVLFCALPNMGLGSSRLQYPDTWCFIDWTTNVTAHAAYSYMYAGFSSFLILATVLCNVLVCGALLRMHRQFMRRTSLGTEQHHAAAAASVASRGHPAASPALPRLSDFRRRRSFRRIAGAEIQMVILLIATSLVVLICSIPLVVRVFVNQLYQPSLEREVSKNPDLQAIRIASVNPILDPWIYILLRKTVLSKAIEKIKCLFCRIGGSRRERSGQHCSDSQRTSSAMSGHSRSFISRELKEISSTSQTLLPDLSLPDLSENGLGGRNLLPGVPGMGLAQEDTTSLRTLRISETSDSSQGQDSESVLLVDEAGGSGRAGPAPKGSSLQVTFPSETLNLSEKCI

T1 sequence (P30989 whole entry): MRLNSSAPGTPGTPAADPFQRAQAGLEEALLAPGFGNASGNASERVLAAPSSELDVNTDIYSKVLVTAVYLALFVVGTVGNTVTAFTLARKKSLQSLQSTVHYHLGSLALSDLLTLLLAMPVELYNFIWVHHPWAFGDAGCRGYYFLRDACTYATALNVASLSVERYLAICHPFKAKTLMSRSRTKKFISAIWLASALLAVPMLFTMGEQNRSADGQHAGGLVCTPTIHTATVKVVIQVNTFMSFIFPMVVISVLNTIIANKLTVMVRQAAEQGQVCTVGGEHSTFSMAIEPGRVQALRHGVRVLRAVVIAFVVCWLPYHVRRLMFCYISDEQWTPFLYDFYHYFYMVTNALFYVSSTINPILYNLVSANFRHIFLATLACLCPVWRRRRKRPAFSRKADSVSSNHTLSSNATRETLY
Chain of 5-HT2B (h) (P41595 whole entry): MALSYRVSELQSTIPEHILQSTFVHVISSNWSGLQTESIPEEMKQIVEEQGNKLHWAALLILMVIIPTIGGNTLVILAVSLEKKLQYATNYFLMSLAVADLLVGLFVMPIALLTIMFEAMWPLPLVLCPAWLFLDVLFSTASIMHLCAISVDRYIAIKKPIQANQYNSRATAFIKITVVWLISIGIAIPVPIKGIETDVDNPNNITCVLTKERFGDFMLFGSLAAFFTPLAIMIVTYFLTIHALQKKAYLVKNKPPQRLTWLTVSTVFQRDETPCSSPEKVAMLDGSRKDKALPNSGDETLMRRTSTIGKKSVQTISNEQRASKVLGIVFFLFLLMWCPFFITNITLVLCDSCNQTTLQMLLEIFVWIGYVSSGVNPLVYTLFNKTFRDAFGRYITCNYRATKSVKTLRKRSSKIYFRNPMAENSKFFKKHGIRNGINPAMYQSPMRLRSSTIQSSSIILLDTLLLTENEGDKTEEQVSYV
Chain of 5-HT2A (h) (P28223 whole entry): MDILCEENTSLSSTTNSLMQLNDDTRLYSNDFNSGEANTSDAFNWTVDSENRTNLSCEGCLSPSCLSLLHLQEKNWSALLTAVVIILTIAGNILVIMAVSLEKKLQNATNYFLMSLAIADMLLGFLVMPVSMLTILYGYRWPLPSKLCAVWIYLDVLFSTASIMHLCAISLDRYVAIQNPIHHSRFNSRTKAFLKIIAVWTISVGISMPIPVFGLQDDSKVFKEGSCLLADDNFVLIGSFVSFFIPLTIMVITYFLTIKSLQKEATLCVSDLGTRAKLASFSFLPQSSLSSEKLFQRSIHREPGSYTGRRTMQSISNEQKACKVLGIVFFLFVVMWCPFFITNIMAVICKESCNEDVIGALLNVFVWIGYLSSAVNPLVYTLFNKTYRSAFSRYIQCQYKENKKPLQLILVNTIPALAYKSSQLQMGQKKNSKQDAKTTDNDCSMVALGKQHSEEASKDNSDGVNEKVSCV
Chain of NK3 (h) (P29371 whole entry): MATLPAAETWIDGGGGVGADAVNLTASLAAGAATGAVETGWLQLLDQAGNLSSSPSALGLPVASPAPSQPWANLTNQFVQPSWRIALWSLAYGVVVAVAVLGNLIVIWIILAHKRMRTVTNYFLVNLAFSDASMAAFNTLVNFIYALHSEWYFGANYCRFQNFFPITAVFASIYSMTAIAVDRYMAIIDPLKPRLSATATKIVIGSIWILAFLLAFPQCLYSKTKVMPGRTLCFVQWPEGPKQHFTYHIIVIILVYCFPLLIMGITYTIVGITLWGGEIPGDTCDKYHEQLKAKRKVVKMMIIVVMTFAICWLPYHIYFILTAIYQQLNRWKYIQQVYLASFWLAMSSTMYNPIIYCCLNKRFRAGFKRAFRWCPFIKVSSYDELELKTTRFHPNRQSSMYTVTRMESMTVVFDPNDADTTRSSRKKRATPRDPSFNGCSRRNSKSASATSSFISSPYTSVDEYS
Chain of dopamine transporter (h) (Q01959 whole entry): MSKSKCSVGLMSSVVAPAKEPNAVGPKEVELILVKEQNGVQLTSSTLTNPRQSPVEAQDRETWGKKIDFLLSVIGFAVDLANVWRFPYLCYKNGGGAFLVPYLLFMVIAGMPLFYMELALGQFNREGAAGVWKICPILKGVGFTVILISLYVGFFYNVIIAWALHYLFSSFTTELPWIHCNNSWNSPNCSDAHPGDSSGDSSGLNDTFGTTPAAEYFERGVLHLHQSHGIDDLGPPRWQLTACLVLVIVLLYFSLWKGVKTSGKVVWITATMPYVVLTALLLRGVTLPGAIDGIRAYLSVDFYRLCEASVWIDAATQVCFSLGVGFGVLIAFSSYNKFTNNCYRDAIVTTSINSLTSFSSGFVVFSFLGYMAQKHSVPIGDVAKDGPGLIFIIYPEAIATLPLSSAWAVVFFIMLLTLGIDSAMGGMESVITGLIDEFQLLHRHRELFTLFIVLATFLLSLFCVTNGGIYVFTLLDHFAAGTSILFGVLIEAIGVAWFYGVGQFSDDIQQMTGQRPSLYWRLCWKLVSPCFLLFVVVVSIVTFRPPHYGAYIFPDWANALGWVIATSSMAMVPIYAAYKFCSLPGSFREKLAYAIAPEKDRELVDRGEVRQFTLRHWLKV
Chain of 5-HT6 (h) (P50406 whole entry): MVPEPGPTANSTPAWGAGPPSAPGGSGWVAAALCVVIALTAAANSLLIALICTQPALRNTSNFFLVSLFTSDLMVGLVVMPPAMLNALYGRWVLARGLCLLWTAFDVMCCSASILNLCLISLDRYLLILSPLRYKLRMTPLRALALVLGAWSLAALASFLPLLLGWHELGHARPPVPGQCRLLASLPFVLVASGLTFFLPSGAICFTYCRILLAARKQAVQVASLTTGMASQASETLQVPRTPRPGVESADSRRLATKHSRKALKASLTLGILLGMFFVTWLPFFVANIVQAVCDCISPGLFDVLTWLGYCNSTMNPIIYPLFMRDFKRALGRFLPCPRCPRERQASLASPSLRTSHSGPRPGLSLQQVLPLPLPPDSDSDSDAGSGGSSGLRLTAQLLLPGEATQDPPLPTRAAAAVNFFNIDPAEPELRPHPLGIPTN
Chain of 5-HT3 (h) (P46098 24-478): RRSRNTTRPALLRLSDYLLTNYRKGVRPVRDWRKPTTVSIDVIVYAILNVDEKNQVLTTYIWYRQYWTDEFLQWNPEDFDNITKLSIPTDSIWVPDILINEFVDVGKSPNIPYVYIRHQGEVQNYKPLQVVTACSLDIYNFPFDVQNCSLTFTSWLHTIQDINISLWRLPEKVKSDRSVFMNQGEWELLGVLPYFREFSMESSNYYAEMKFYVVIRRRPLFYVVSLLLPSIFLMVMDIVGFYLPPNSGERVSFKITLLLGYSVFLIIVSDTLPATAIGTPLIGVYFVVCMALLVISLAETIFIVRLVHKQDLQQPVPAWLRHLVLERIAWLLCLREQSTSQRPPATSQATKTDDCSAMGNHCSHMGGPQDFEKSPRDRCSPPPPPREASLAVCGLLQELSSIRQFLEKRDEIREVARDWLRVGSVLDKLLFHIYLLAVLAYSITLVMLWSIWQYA
Chain of mu (MOP) (h) (P35372 whole entry): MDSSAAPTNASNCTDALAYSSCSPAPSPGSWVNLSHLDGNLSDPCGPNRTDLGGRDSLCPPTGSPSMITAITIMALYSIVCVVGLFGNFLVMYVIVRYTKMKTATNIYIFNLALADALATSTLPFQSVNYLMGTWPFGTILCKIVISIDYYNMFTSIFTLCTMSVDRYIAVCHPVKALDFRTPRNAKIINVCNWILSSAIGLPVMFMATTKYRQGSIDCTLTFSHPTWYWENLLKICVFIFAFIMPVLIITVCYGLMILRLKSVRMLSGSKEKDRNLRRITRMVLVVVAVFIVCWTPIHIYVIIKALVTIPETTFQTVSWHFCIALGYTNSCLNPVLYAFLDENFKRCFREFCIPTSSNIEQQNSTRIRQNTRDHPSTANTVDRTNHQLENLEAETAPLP
Chain of M3 (h) (P20309 whole entry): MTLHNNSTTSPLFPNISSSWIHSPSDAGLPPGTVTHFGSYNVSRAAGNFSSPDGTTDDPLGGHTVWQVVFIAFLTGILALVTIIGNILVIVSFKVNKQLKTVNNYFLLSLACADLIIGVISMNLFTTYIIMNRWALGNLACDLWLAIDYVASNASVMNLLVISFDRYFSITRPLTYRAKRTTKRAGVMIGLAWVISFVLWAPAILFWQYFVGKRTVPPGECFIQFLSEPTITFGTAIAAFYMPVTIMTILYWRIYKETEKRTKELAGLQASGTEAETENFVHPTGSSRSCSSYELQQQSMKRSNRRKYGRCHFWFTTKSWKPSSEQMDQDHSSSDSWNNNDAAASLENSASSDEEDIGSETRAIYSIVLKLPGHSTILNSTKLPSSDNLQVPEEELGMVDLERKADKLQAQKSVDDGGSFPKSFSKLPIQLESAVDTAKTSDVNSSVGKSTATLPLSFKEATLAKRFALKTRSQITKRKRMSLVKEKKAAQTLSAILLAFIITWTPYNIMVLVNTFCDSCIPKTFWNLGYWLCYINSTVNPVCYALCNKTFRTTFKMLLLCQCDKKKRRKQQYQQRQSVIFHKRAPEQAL

Molecule: c1ccc2sc(C3(N4CCCCC4)CCCCC3)cc2c1 [BTCP]
- nH Ref (dopamine transporter (h)): 1.0

Molecule: somatostatin-14
- nH Ref (sst (non-selective)): 0.8
- Ki (sst (non-selective); read-out: Ki Ref): 0.11 nM

Molecule: C[N+]1(C)CCC(OC(=O)C(c2ccccc2)c2ccccc2)CC1.[I-] [Compound 4-DAMP]
- nH Ref (M3 (h)): 1.1

- nH Ref (5-HT1B): 0.9
- nH Ref (5-HT6 (h)): 0.8
Molecule: NCCc1c[nH]c2ccc(O)cc12 [serotonin]

- IC50 (NTR1 [1]): 2.3 nM
- IC50 (NTR1 [2]): 14.5 nM
Molecule: COc1cccc(OC)c1-c1cc(C(=O)NC2(C(=O)O)C3CC4CC(C3)CC2C4)nn1-c1ccc(C(=O)N(C)CCCN(C)CCCN(C)C(=O)c2ccc(F)cc2)cc1C(C)C (centres unmarked) [(IIIg), 2-{[5-(2,6-Dimethoxy-phenyl)-1-(4-{[3-({3-[(4-fluoro-benzoyl)-methyl-amino]-propyl}-methyl-amino)-propyl]-methyl-carbamoyl}-2-isopropyl-phenyl)-1H-pyrazole-3-carbonyl]-amino}-adamantane-2-carboxylic acid]

Molecule: C=C(C)[C@@H]1[C@H]2OC(=O)[C@@H]1[C@]1(O)C[C@H]3O[C@]34C(=O)O[C@H]2[C@]14C [picrotoxinin]
- nH Ref (Cl-channel (GABA-gated)): 0.9

Molecule: C[C@@H](NC(=O)[C@@H](N)Cc1ccc(O)cc1)C(=O)NCC(=O)N(C)[C@@H](Cc1ccccc1)C(=O)NCCO [DAMGO]
- nH Ref (mu (MOP) (h)): 1.0

Molecule: COc1cc(CC(C)N)c(OC)cc1I (racemic) [(±)DOI]
- nH Ref (5-HT2B (h)): 1.0
- Ki (5-HT2B (h); read-out: Ki Ref): 3.1 nM

Molecule: COc1cccc(OC)c1-c1cc(C(=O)NC2(C(=O)O)C3CC4CC(C3)CC2C4)nn1-c1ccc(C(=O)N(CCCNC(=O)CCC(=O)NCCCOCCOCCOCCCNC(=O)CN2CCN(CC(=O)O)CCN(CC(=O)O)CCN(CC(=O)O)CC2)CCCN(C)C)cc1C(C)C (centres unmarked) [(Vb), 2-{[5-(2,6-Dimethoxy-phenyl)-1-(4-{(3-dimethylamino-propyl)-[3-(DOTA-Ttds-amino)-propyl]-carbamoyl}-2-isopropyl-phenyl)-1H-pyrazole-3-carbonyl]-amino}-adamantane-2-carboxylic]
- IC50 (NTR1 [1]): 2.4 nM
- IC50 (NTR1 [2]): 26 nM

Molecule: COc1ccccc1CNCCCCCCNCCCCCCCCNCCCCCCNCc1ccccc1OC [methoctramine]
- nH Ref (M2 (h)): 0.9

- IC50 (NTR1 [1]): 5.7 nM
- IC50 (NTR1 [2]): 11.8 nM
Molecule: COc1cccc(OC)c1-c1cc(C(=O)NC2(C(=O)O)C3CC4CC(C3)CC2C4)nn1-c1ccc(C(=O)N(C)CCCN(C)CCCN(C)C(=O)CCCCCNC(=O)CN2CCN(CC(=O)O)CCN(CC(=O)O)CCN(CC(=O)O)CC2)cc1C(C)C (centres unmarked) [(IIIc), 2-{[1-(4-{[3-({3-[(DOTA-Ahx)-methyl-amino]-propyl}-methyl-amino)-propyl]-methyl-carbamoyl}-2-isopropyl-phenyl)-5-(2,6-dimethoxy-phenyl)-1H-pyrazole-3-carbonyl]-amino}-adamantane-2-carboxylic acid]

- IC50 (NTR1 [1]): 0.87 nM
- IC50 (NTR1 [2]): 7.54 nM
Molecule: CNCCCN(C)CCCN(C)C(=O)c1ccc(-n2nc(C(=O)NC3(C(=O)O)C4CC5CC(C4)CC3C5)cc2-c2c(OC)cccc2OC)c(C(C)C)c1 (centres unmarked) [(III), 2-({5-(2,6-Dimethoxy-phenyl)-1-[2-isopropyl-4-(methyl-{3-[methyl-(3-methylamino-propyl)-amino]-propyl}-carbamoyl)-phenyl]-1H-pyrazole-3-carbonyl}-amino)-adamantane-2-carboxylic acid]

Molecule: CCCC[C@H](NC(=O)[C@H](CC(C)C)NC(=O)CNC(=O)[C@@H](NC(=O)[C@H](Cc1ccccc1)NC(=O)[C@H](CO)NC(=O)[C@@H](N)CC(=O)O)C(C)C)C(N)=O [[Nleu10]-NKA (4-10)]
- nH Ref (NK2 (h)): 0.8

Molecule: CN1[C@@H]2CC[C@H]1C[C@@H](OC(=O)c1cc(Cl)cc(Cl)c1)C2 [MDL 72222]
- nH Ref (5-HT3 (h)): 0.8

Molecule: COc1cc2nc(N3CCN(C(=O)c4ccco4)CC3)nc(N)c2cc1OC [prazosin]
- nH Ref (alpha 1 (non-selective)): 1.2

- IC50 (NTR1 [1]): 3.7 nM
- IC50 (NTR1 [2]): 14.5 nM
Molecule: COc1cccc(OC)c1-c1cc(C(=O)NC2(C(=O)O)C3CC4CC(C3)CC2C4)nn1-c1ccc(C(=O)N(C)CCCN(C)CCCN(C)C(=O)CCC(C(=O)O)N2CCN(CC(=O)O)CCN(CC(=O)O)CC2)cc1C(C)C (centres unmarked) [(IIId), 2-{[1-(4-{[3-({3-[(NODAGA)-methyl-amino]-propyl}-methyl-amino)-propyl]-methyl-carbamoyl}-2-isopropyl-phenyl)-5-(2,6-dimethoxy-phenyl)-1H-pyrazole-3-carbonyl]-amino}-adamantane-2-carboxylic acid]

- IC50 (NTR1 [1]): 3 nM
- IC50 (NTR1 [2]): 17.5 nM
Molecule: COc1cccc(OC)c1-c1cc(C(=O)NC2(C(=O)O)C3CC4CC(C3)CC2C4)nn1-c1ccc(C(=O)N(C)CCCN(C)CCCN(C)C(=S)Nc2ccc(NC(=S)NCCCCCN(O)C(=O)CCC(=O)NCCCCCN(O)C(=O)CCC(=O)NCCCCCN(O)C(C)=O)cc2)cc1C(C)C (centres unmarked) [(IIIf), 2-({5-(2,6-Dimethoxy-phenyl)-1-[2-isopropyl-4-(methyl-{3-[methyl-(3-{1-methyl-3-[4-(3-DFO-thioureido)-phenyl]-thioureido}-propyl)-amino]-propyl}-carbamoyl)-phenyl]-1H-pyrazole-3-carbonyl}-amino)-adamantane-2-carboxylic]

Molecule: CC(C)C[C@@H]1NC(=O)[C@H](C)NC(=O)[C@H]([C@@H](C)O)NC(=O)[C@H](CCC(=O)O)NC(=O)[C@@H]2CCCN2C(=O)[C@H](C)NC(=O)[C@H](CCCCN)NC(=O)[C@@H]2CSSC[C@@H](C(=O)N[C@@H](CCC(N)=O)C(=O)N[C@@H](CCC(N)=O)C(=O)N[C@@H](Cc3cnc[nH]3)C(N)=O)NC(=O)[C@H](CCCNC(=N)N)NC(=O)[C@H](CCCNC(=N)N)NC(=O)[C@H](C)NC(=O)[C@H](CSSC[C@H](N)C(=O)N[C@@H](CC(N)=O)C(=O)N2)NC1=O [apamin]
- nH Ref (SKCa channel): 1.3

- nH Ref (MT1 (ML1A) (h)): 0.9
Molecule: COc1ccc2[nH]cc(CCNC(C)=O)c2c1 [melatonin]

- IC50 (NTR1 [1]): 4.9 nM
- IC50 (NTR1 [2]): 21.4 nM
Molecule: COc1cccc(OC)c1-c1cc(C(=O)NC2(C(=O)O)C3CC4CC(C3)CC2C4)nn1-c1ccc(C(=O)N(C)CCCN(C)CCCN(C)C(=O)CCC(=O)NCCCOCCOCCOCCCNC(=O)CCC(C(=O)O)N2CCN(CC(=O)O)CCN(CC(=O)O)CC2)cc1C(C)C (centres unmarked) [(IIIe), 2-{[1-(4-{[3-({3-[(NODAGA-Ttds)-methyl-amino]-propyl}-methyl-amino)-propyl]-methyl-carbamoyl}-2-isopropyl-phenyl)-5-(2,6-dimethoxy-phenyl)-1H-pyrazole-3-carbonyl]-amino}-adamantane-2-carboxylic acid]

Molecule: alpha-dendrotoxin (QPRRKLCILHRNPGRCYDKIPAFYYNQKKKQCERFDWSGCGGNSNRFKTIEECRRTCIG)
- nH Ref (KV channel): 1.7
- Ki (KV channel; read-out: Ki Ref): 0.2 nM

- nH Ref (NK3 (h)): 0.9
Molecule: CC[C@H](NC(=O)c1c(C)c(-c2ccccc2)nc2ccccc12)c1ccccc1 [SB 222200]

- nH Ref (5-HT2A (h)): 1.0
Molecule: O=C(c1ccc(F)cc1)C1CCN(CCn2c(=O)[nH]c3ccccc3c2=O)CC1 [ketanserin]

- nH Ref (EP4 (h)): 1.1
Molecule: CCCCC[C@H](O)/C=C/[C@H]1[C@H](O)CC(=O)[C@@H]1C/C=C\CCCC(=O)O [PGE2]

— patent US10799605B2 (3B PHARMACEUTICALS GMBH, priority 2014, dated 2020)
